For test [1], the system named is Leishmania donovani. The experiment in a line: In vitro leishmanicidal activity determined by measuring 3H thymidine incorporation in promastigotes of Leishmania donovani. On the set-up: concentration or dose not given beside the values. The class given is functional.
The nature of test [2]: In vivo leishmanicidal activity determined against amastigotes of Leishmania donovani in golden hamsters. The class given is functional, Mesocricetus auratus. The arrangement: concentration or dose not given beside the values.
The next test deals with Cricetulus griseus. The experiment in a line: TThe in vivo leishmanicidal activity of compound was determined against amastigotes of Leishmania donovani in golden hamsters (Mesocricetus auratus) at dose of 50 mg/kg for 5 days; Toxic. The class given is functional, organism-based. The arrangement: dose 50 mg/kg.
Test [3] relates to Leishmania donovani. The experiment in a line: In vivo leishmanicidal activity determined against amastigotes of Leishmania donovani in golden hamsters. The following applies: Mesocricetus auratus; dose or concentration not given here.
Test [4] concerns Leishmania donovani. Description: In vitro leishmanicidal activity of compound was determined by measuring 3H thymidine incorporation in promastigotes of Leishmania donovani at concentration of 100 uM. The class given is functional.

Take `O=c1c2c(=O)n(-c3ccccc3)c(=S)n3c2n(c(=S)n1-c1ccccc1)CC3`: the Inhibition worked out at 85% in the test on Leishmania donovani [1] and 81.3% in test [2].
On the same counts, the results for `CCn1c(=N)c2c(=O)n(CC)c(=S)n3c2n(c1=S)CC3` are 20% and 71.2%.
`N=c1c2c(=O)n(-c3ccc(F)cc3)c(=S)n3c2n(c(=S)n1-c1ccc(F)cc1)CC3`: the Inhibition with Leishmania donovani [1] stood at 99.3%. Besides, the inhibition result in the test with Cricetulus griseus is “Toxic”.
For `CCO/C(O)=C(\C1=NCCN1)c1nn2cc(-c3ccc(Cl)cc3)nc2s1`, the Inhibition in the test on Leishmania donovani [1] was 40%; in test [2], 0%.
In the case of `CCO/C(O)=C(\C1=NCCN1)c1nn2cc(-c3ccc(Br)cc3)nc2s1`, the Inhibition was 31% with Leishmania donovani [1] and 0% in test [2].
The like results for `CCn1c(=O)c2c(=O)n(CC)c(=O)n3c2n(c1=O)CCC3` were, in that order, 58% and 0%.
Compound `N#CC(=C1SCCS1)c1nnc(N)s1` yielded an Inhibition in the test on Leishmania donovani [1] of 18%.
In the case of `CCO/C(O)=C(\C1=NCCN1)c1nnc(N)s1`, in the test with Leishmania donovani [1], the Inhibition is recorded as 0%.
For the compound `N=c1c2c(=O)n(-c3ccccc3)c(=S)n3c2n(c(=S)n1-c1ccccc1)CC3`, the Inhibition with Leishmania donovani [1] is on record as 99.3%; in test [2], 78.6%.
Consider `CCOC(=O)C(=C1SCCCS1)c1nnc(N)s1`, for which the Inhibition in the test with Leishmania donovani [1] stood at 0%.
Consider `CCO/C(O)=C(\C1=NCCCN1)c1nnc(N)s1`, for which the Inhibition came to 73% with Leishmania donovani [1] and 44.7% in test [2].
The compound Sodium stibogluconate showed an inhibition with Leishmania donovani [3] of 100%.
As for `Cc1ccccc1-n1c(=O)c2c(=O)n(-c3ccccc3C)c(=O)n3c2n(c1=O)CC3`, the values for the Inhibition (in the test with Leishmania donovani [1]; in test [2]) were 93% and 0%, respectively.
`CCn1c(=O)c2c(=O)n(CC)c(=S)n3c2n(c1=S)CC3` registered an Inhibition in the test on Leishmania donovani [1] of 76%.
`O=c1c2c(=O)n(-c3ccc(F)cc3)c(=S)n3c2n(c(=S)n1-c1ccc(F)cc1)CC3`: the Inhibition with Leishmania donovani [1] was 50%; in test [2], 0%.
As for `CCOC(=O)C(=C1SCCS1)c1nnc(N)s1`, in the test with Leishmania donovani [1], the Inhibition is 0%.
Turning to `CCn1c(=N)c2c(=O)n(CC)c(=S)n3c2n(c1=S)CCC3`, the Inhibition was 99.2% in the test with Leishmania donovani [1] and 50.7% in test [2].
For the compound `N=C(N)c1ccc(OCCCCCOc2ccc(C(=N)N)cc2)cc1` [PENTAMIDINE], in the test on Leishmania donovani [4], the inhibition at 100 µM was determined as 100%.
In the test on Leishmania donovani [1], `Cc1ccccc1-n1c(=N)c2c(=O)n(-c3ccccc3C)c(=O)n3c2n(c1=O)CC3` yielded an Inhibition of 7%.

The values above are taken from ChEMBL document CHEMBL1150556, “Tetraazaacenaphthene, tetraazaphenalene and 1,3,4-thiadiazole derivatives as potential leishmanicides” (1997).
